Measurements from patent publication US6489307B1, “Antisense compositions targeted to β1-adrenoceptor-specific mRNA and methods of use” (University of Florida, priority 1998, dated 2002).
Entries after “also recorded” stand apart in the source; their conditions may differ.

Assays:
Format in all cases: in vivo, Sprague-Dawley rats
β1-AR = experiment: β-AR density in myocardium after ischemia-reperfusion (binding assay)
Protocol: Membrane protein was prepared from left ventricles as previously described (Baker and Pitha, 1982). For saturation studies, 100 μg membrane protein was incubated in triplicate with ^125I-(−)iodocyanopindolol (I-CYP, NEN Life Science, 6.25-100 pM) in a total volume of 250 μl containing 50 mM Tris-HCl (pH 7.4), 5 mM MgCl2 at 36° C. for 60 min. The nonspecific and β2-adrenoceptor binding were determined in the presence of 1 μM (±)-alprenolol and […] (RBI), respectively. Then the reaction mixture was passed through Whatman GF/B glass filter using Brandel harvester and the radioactivity was counted for one min.

β1-AR mRNA = experiment: RT-PCR of β1-AR mRNA in myocardium; details: adjusted for GAPDH
Protocol: Total RNA was isolated from rat myocardium with the single step acid-guanidinum thiocyanate-phenol-chloroform method and quantified (Chomcznski and Sacchi, 1987). One μg of total RNA was reverse transcribed with oligo-dT (Promega) and M-MLV reverse transcriptase (Promega) at 37° C. for one hr. 1.5 μl of RT material was amplified with Taq DNA polymerase (Promega) using a primer pair specific to β1-AR:
PCR™ product was 432 base pairs. For PCR, 35 cycles were used at 95° C. for one minute, 60° C. for one minute, and 72° C. for one min. The RT-PCR™ amplified samples were visualized on 1.8% agarose gels using ethidium bromide. A primer pair of rat GAPDH was used as control:
For PCR™, 35 cycles were used at 95° C. for one min, 60° C. for one min, 72° C. for one min. PCR™ product was 504 base pairs. Relative intensity of bands of interest were analyzed by NSF-300G Scanner (Microtek) (Yang et al., 1998; Li et al., 1999).

MDA (lipid peroxidation) = experiment: MDA levels in myocardium after ischemia-reperfusion; details: pretreatment before ischemia-reperfusion; vs saline
Protocol: Malondialdehyde (MDA) levels in myocardium were measured in duplicate by a modification of the method of Ohkawa et al., (1979). Briefly, the ventricular tissues were homogenized. The assay mixture consisted of 0.1 ml of the tissue homogenate, 0.4 ml of 0.9% NaCl, 0.5 ml of 3% sodium dodecylsulfate, 3 ml of TBA (thiobarbituric acid reagent, containing equal parts of 0.8% aqueous thiobarbituric acid and acetic acid) and was heated for 75 min at 95° C. Thereafter, 1 ml cold 0.9% NaCl was added to the mixture, which was cooled and extracted with 5 ml n-butanol. After centrifugation at 3,000 rpm for 15 min, the butanol phase was assayed spectrophotometrically at 532 nm. Tetramethoxypropane (in amounts of 0, 0.1, 0.2, 0.4, 0.8, 1.0 nmole) served as external standard. MDA levels in myocardium were expressed in μmol/g tissue.

β1-AR protein = experiment: Western blot of β1-AR protein in myocardium; details: Western analysis
Protocol: Myocardial tissues were homogenized and lysed in boiling lysis buffer (1% SDS, 0.1% Triton X-100®, and 10 mmol/L Tris-HCl, pH 7.4) and centrifuged at 10,000 RPM for 30 minutes at 4° C. The lysate protein from myocardial tissues (20 μg/lane) was separated by 8% SDS-PAGE using a Bio-Rad Mini-Protean cell, transferred to nitrocellulose membrane (Amersham). After incubation in blocking solution (4% non-fat milk, Sigma), membranes were incubated with 1:1000 dilation primary antibody (polycolonal antibody to β1-AR, Santa Cruz Biotechnology) for overnight at 4° C. Membranes were washed and incubated with 1:2000 dilution second antibody (Amersham) for one hr. The membranes were detected with the ECL system, as described previously (Yang et al, 1998; Li et al., 1999).

isolated rat heart = experiment: Isolated perfused heart model, myocardial ischemia-reperfusion; details: for ischemia-reperfusion-induced myocardial dysfunction (LVSP, dLVP, LVEDP, CPP): ODN 200 μg/rat i.v. with liposomes 4 days before, 30 min ischemia, 30 min reperfusion; for ischemia-reperfusion induced ventricular abnormality (dLVP, CPP, LVEDP): ODN 1 mg/kg i.v. 4 days before, atenolol 2 mg/kg 6 hr before
Protocol: Male Sprague-Dawley rats weighing 200-250 g were injected intravenously with either AS-ODNs (n=7) or IN-ODNs (n=7) at a dose of 200 μg/rat 4 days before excising the hearts. DOTAP/DOPE liposomes (700 μg/rat) were given along with ODNs.
The hearts were excised rapidly and placed in ice-cold Kreb-Henseleit buffer (mmol/L: NaCl 118, KCl 4.7, KH2PO4 1.2, MgSO4 1.2, CaCl2 1.25, NaHCO3 25, and glucose 11, pH 7.4). Within one min, the hearts were transferred to an isolated perfusion apparatus and perfused via the aorta with oxygen-saturated (95% O2+5% CO2) Kreb-Henseleit buffer kept at 37° C. with the use of a MasterFlex pump (model 7015-21, Cole-Palmer Instrument Co.) according to the modified Langendroff procedure (Yang et al., 1998; Neely and Rovetto, 1975). The heart was placed in a semi-closed circulating water-warmed (37° C.) air chamber, paced atrially with a Medtronic 5320 pacemaker at a rate of 300 bpm, and perfused at a constant flow (5.5-6.0 ml/per min). Coronary perfusion pressure (CPP) was measured via a catheter placed just proximal to the aorta and connected to a Gould Statham P23ID pressure transducer. A latex balloon filled with water and connected to a Gould Statham P23ID pressure transducer was inserted in the left ventricle through the left atrium to measure left ventricular end-diastolic pressure (LVEDP), left ventricular systolic pressure (LVSP), and developed left ventricular pressure (dLVP) (dLVP=LVSP−LVEDP). LVEDP during equilibration was set at 5 to 7 mmHg. All measurements were continuously recorded on a 4-channel record (Astro-Med).
Six hearts from saline-treated rats were continuously perfused with Kreb-Henseleit buffer for 80 min and served as sham control. Hearts from other rats, after 20 min of equilibration, were subjected to 30 min of ischemia followed by 30 min of reperfusion. After completion of the study, hearts were frozen in liquid-nitrogen for β1-AR analysis by binding assay, β1-AR protein analyses by Western blot, β1-AR mRNA analysis by reverse transcription-polymerase chain reaction (RT-PCR™), and measurement of MDA.
The protective effects of β1-AS-ODNs were tested in a rat model of myocardial ischemia-reperfusion. Five groups of SD rats were studied. Sham controls (n=6) were injected with saline and perfused continuously for 80 min without ischemia/reperfusion (I/R). In other groups, hearts were perfused for 20 min and subjected to global ischemia (30 min) followed by reperfusion (30 min). […] AS-ODN+I/R (n=7) or INV-ODN+I/R (n=7) were injected iv. with 1 mg/kg β1-AS-ODN or INV-ODN 4 days before the I/R study was performed.

Substance	β1-AR density (Bmax) in ischemic-reperfused myocardium (β1-AR; vs 28.7±5.4 in saline-treated rat hearts) [fmol/mg]	increase of mRNA for β1-AR in myocardium (β1-AR mRNA)	increase in MDA levels in the myocardium (MDA (lipid peroxidation))	ischemia-reperfusion-mediated increase in β1-AR protein expression (β1-AR protein)	preserving dLVP after ischemia-reperfusion, comparison with atenolol (isolated rat heart; 200 μg/rat 4 days before)	overall protective effects, comparison with atenolol (isolated rat heart; 1 mg/kg i.v. 4 days before)	restoration of dLVP, comparison with atenolol (isolated rat heart; 1 mg/kg i.v. 4 days before)	ischemia-reperfusion-induced myocardial dysfunction (LVSP, dLVP, LVEDP, CPP) (isolated rat heart)	ischemia-reperfusion induced ventricular abnormality (dLVP, CPP, LVEDP) (isolated rat heart)	effect on β1-AR density in ischemic-reperfused myocardium (β1-AR; rat, in vivo)
5′-CCGCGCCCATGCCGA-3′ (phosphorothioate backbone, further chemistry not given here) [β1-AS-ODN, 15-mer antisense ODN targeted to the AUG start codon of rat β1-AR mRNA]	15.9 ± 1.3	attenuated the increase	attenuated the increase	abolished	more effective than atenolol	equivalent to or even better than atenolol	to a greater extent than atenolol	markedly attenuated	beneficial effects; also recorded: markedly attenuated	
5′-AGCCGTACCCGCGCC-3′ (phosphorothioate backbone, further chemistry not given here) [Inverted ODN, 15-mer inverted ODN control, reference compound]		not significantly affected	did not affect	no effect				no effect	no effect	no effect
